What was measured:
Format in all cases: physicochemical
[1] = Evaluation of moisture resistance (image-recorded paper at 40° C. and humidity 85%, visual observation); conditions: for (B) moisture resistance: image-recorded paper at 40° C. and humidity 85%, visually observed
[2] = Evaluation of storage stability of ink (40° C. for 3 months, insoluble matter and clogging); conditions: recording liquid stored at 40° C. for 3 months; insoluble matter and clogging
Method: (§1) The prepared ink was filled in an ink cartridge for a piezo-type ink-jet printer EM-930C (manufactured by Seiko Epson). The printing was performed with this printer, and the light fastness was evaluated. Further, the storage stability of the ink was evaluated.
(C) Evaluation of Storage Stability of Ink:
After a recording liquid was stored at 40° C. for 3 months, it was observedwhether or not an insoluble matterwas precipitated, and whether or not clogging occurred after continuous recording with the foregoing printer for a long period of time.

[3] = Evaluation of light fastness-1 (OD value of printed portion after 100 hours xenon fadeometer); conditions: for (A)-1 light fastness-1: ink prepared as in Example 1 from the salt named in the row, OD value of printed portion after 100 hours xenon fadeometer
Method: as §1
(A)-1 Evaluation of Light Fastness-1
Printing density (OD value) was measured after irradiating a printed portion with light for 100 hours using a xenon fadeometer (manufactured by Suga Shikenki) to evaluate the light fastness.

[4] = Evaluation of light fastness-2 (OD value of printed portion after 400 hours xenon fadeometer); conditions: ink prepared as in Example 1 from the salt named in the row; OD value of printed portion after 400 hours xenon fadeometer
Method: as §1
(A)-2 Evaluation of Light Fastness-2
Printing density (OD value) was measured after irradiating a printed-portion with light for 400 hours using axenon fadeometer (manufactured by Suga Shikenki), and the light fastness was evaluated.

[5] = ink prepared as in Example 1, for comparative inks in comparison to the ink of the invention

Structure (SMILES): O=C(O)c1nn(-c2ccc(S(=O)(=O)O)cc2)c(O)c1N=Nc1ccc(S(=O)(=O)O)cc1 [C. I. Acid Yellow 23, reference compound]
- moisture resistance (in words) [1, 5]: poor
- (C) storage stability [2]: ◯
- light fastness (in words) [3, 5]: poor

Structure (SMILES): Cc1c(N=Nc2cc(C(=O)O)ccc2C(=O)O)c(O)n(CCCNc2nc(Cl)nc(NCCCn3c(O)c(N=Nc4cc(C(=O)O)ccc4C(=O)O)c(C)c(C#N)c3=O)n2)c(=O)c1C#N [Compound 247]
- (B) moisture resistance [1]: ⊚
- (C) storage stability [2]: ◯
- (A)-1 light fastness-1 [3]: ⊚
- (A)-2 light fastness-2 [4]: ◯

Structure (SMILES): N#Cc1c(C(F)(F)F)c(N=Nc2cc(C(=O)O)ccc2C(=O)O)c(O)n(CCNc2nc(Cl)nc(NCCn3c(O)c(N=Nc4cc(C(=O)O)ccc4C(=O)O)c(C(F)(F)F)c(C#N)c3=O)n2)c1=O [Compound 248]
- (B) moisture resistance [1]: ⊚
- (C) storage stability [2]: Δ
- (A)-1 light fastness-1 [3]: ⊚
- (A)-2 light fastness-2 [4]: ⊚

Structure (SMILES): Cc1c(N=Nc2cc(C(=O)O)ccc2C(=O)O)c(O)n(CCCCCCNc2nc(Cl)nc(NCCn3c(O)c(N=Nc4cc(C(=O)O)ccc4C(=O)O)c(C)c(C#N)c3=O)n2)c(=O)c1C#N [Compound 249]
- (B) moisture resistance [1]: ⊚
- (C) storage stability [2]: Δ
- (A)-1 light fastness-1 [3]: ⊚
- (A)-2 light fastness-2 [4]: ◯

Structure (SMILES): CCc1c(N=Nc2cc(C(=O)O)ccc2C(=O)O)c(O)n(CCNc2nc(Cl)nc(NCCn3c(O)c(N=Nc4cc(C(=O)O)ccc4C(=O)O)c(C(F)(F)F)c(C#N)c3=O)n2)c(=O)c1C#N [Compound 250]
- (B) moisture resistance [1]: ⊚
- (C) storage stability [2]: Δ
- (A)-1 light fastness-1 [3]: ⊚
- (A)-2 light fastness-2 [4]: ◯

Structure (SMILES): CCc1c(N=Nc2cc(C(=O)O)ccc2C(=O)O)c(O)n(CCNc2nc(Cl)nc(NCCn3c(O)c(N=Nc4cc(C(=O)O)ccc4C(=O)O)c(CC)c(C#N)c3=O)n2)c(=O)c1C#N [Compound 251]
- (B) moisture resistance [1]: ⊚
- (C) storage stability [2]: Δ
- (A)-1 light fastness-1 [3]: ⊚
- (A)-2 light fastness-2 [4]: ⊚

Structure (SMILES): Cc1c(N=Nc2cc(C(=O)O)ccc2C(=O)O)c(O)n(CCNc2nc(Cl)nc(NCCn3c(O)c(N=Nc4cc(C(=O)O)ccc4C(=O)O)c(C)c(C(N)=O)c3=O)n2)c(=O)c1C(N)=O [Compound 252]
- (B) moisture resistance [1]: ⊚
- (C) storage stability [2]: Δ
- (A)-1 light fastness-1 [3]: ⊚
- (A)-2 light fastness-2 [4]: ◯

Structure (SMILES): CCOC(=O)Cc1c(N=Nc2cc(C(=O)O)ccc2C(=O)O)c(O)n(CCNc2nc(Cl)nc(NCCn3c(O)c(N=Nc4cc(C(=O)O)ccc4C(=O)O)c(CC(=O)OCC)c(C#N)c3=O)n2)c(=O)c1C#N [Compound 255]
- (B) moisture resistance [1]: ⊚
- (C) storage stability [2]: ◯
- (A)-1 light fastness-1 [3]: ⊚
- (A)-2 light fastness-2 [4]: ◯

Structure (SMILES): Cc1c(N=Nc2c(C(=O)O)cccc2C(=O)O)c(O)n(CCNc2nc(Cl)nc(NCCn3c(O)c(N=Nc4c(C(=O)O)cccc4C(=O)O)c(C)c(C#N)c3=O)n2)c(=O)c1C#N [Compound 256]
- (B) moisture resistance [1]: ⊚
- (C) storage stability [2]: Δ
- (A)-1 light fastness-1 [3]: ⊚
- (A)-2 light fastness-2 [4]: ◯

Structure (SMILES): Cc1c(N=Nc2cccc(C(=O)O)c2C(=O)O)c(O)n(CCCNc2nc(Cl)nc(NCCCn3c(O)c(N=Nc4cccc(C(=O)O)c4C(=O)O)c(C)c(C#N)c3=O)n2)c(=O)c1C#N [Compound 260]
- (B) moisture resistance [1]: ⊚
- (C) storage stability [2]: Δ
- (A)-1 light fastness-1 [3]: ⊚
- (A)-2 light fastness-2 [4]: ◯

Structure (SMILES): N#Cc1c(-c2ccccc2)c(N=Nc2cc(C(=O)O)ccc2C(=O)O)c(O)n(CCNc2nc(Cl)nc(NCCn3c(O)c(N=Nc4cc(C(=O)O)ccc4C(=O)O)c(-c4ccccc4)c(C#N)c3=O)n2)c1=O [Compound 261]
- (B) moisture resistance [1]: ⊚
- (C) storage stability [2]: Δ
- (A)-1 light fastness-1 [3]: ⊚
- (A)-2 light fastness-2 [4]: ◯

Structure (SMILES): Cc1c(N=Nc2cc(C(=O)O)ccc2C(=O)O)c(O)n(CCNc2nc(NCCn3c(O)c(N=Nc4cc(C(=O)O)ccc4C(=O)O)c(C)c(C#N)c3=O)nc(NCCn3c(O)c(N=Nc4cc(C(=O)O)ccc4C(=O)O)c(C)c(C#N)c3=O)n2)c(=O)c1C#N [Compound 262]
- (B) moisture resistance [1]: ⊚
- (C) storage stability [2]: Δ
- (A)-1 light fastness-1 [3]: ⊚
- (A)-2 light fastness-2 [4]: ◯

Structure (SMILES): Cc1c(N=Nc2cc(C(=O)O)ccc2C(=O)O)c(O)n(CCCCCCNc2nc(NCCCCCCn3c(O)c(N=Nc4cc(C(=O)O)ccc4C(=O)O)c(C)c(C#N)c3=O)nc(NCCCCCCn3c(O)c(N=Nc4cc(C(=O)O)ccc4C(=O)O)c(C)c(C#N)c3=O)n2)c(=O)c1C#N [Compound 264]
- (B) moisture resistance [1]: ⊚
- (C) storage stability [2]: Δ
- (A)-1 light fastness-1 [3]: ⊚
- (A)-2 light fastness-2 [4]: ◯

Structure (SMILES): N#Cc1c(C(F)(F)F)c(N=Nc2cc(C(=O)O)ccc2C(=O)O)c(O)n(CCNc2nc(NCCn3c(O)c(N=Nc4cc(C(=O)O)ccc4C(=O)O)c(C(F)(F)F)c(C#N)c3=O)nc(NCCn3c(O)c(N=Nc4cc(C(=O)O)ccc4C(=O)O)c(C(F)(F)F)c(C#N)c3=O)n2)c1=O [Compound 265]
- (B) moisture resistance [1]: ⊚
- (C) storage stability [2]: Δ
- (A)-1 light fastness-1 [3]: ⊚
- (A)-2 light fastness-2 [4]: ⊚

Structure (SMILES): Cc1c(N=Nc2c(C(=O)O)cccc2C(=O)O)c(O)n(CCNc2nc(NCCn3c(O)c(N=Nc4c(C(=O)O)cccc4C(=O)O)c(C)c(C#N)c3=O)nc(NCCn3c(O)c(N=Nc4c(C(=O)O)cccc4C(=O)O)c(C)c(C#N)c3=O)n2)c(=O)c1C#N [Compound 267]
- (B) moisture resistance [1]: ⊚
- (C) storage stability [2]: Δ
- (A)-1 light fastness-1 [3]: ⊚
- (A)-2 light fastness-2 [4]: ◯

Structure (SMILES): Cc1c(N=Nc2cccc(C(=O)O)c2C(=O)O)c(O)n(CCNc2nc(NCCn3c(O)c(N=Nc4cccc(C(=O)O)c4C(=O)O)c(C)c(C#N)c3=O)nc(NCCn3c(O)c(N=Nc4cccc(C(=O)O)c4C(=O)O)c(C)c(C#N)c3=O)n2)c(=O)c1C#N [Compound 268]
- (B) moisture resistance [1]: ⊚
- (C) storage stability [2]: Δ
- (A)-1 light fastness-1 [3]: ⊚
- (A)-2 light fastness-2 [4]: ◯

Structure (SMILES): Cc1c(N=Nc2cc(C(=O)O)ccc2C(=O)O)c(O)n(CCCNc2nc(NCCn3c(O)c(N=Nc4cc(C(=O)O)ccc4C(=O)O)c(C)c(C#N)c3=O)nc(NCCn3c(O)c(N=Nc4c(C(=O)O)cccc4C(=O)O)c(C)c(C#N)c3=O)n2)c(=O)c1C#N [Compound 270]
- (B) moisture resistance [1]: ⊚
- (C) storage stability [2]: Δ
- (A)-1 light fastness-1 [3]: ⊚
- (A)-2 light fastness-2 [4]: ⊚

Structure (SMILES): CCCCc1c(N=Nc2cc(C(=O)O)ccc2C(=O)O)c(O)n(CCNc2nc(NCCn3c(O)c(N=Nc4cc(C(=O)O)ccc4C(=O)O)c(CCCC)c(C#N)c3=O)nc(NCCn3c(O)c(N=Nc4cc(C(=O)O)ccc4C(=O)O)c(CCCC)c(C#N)c3=O)n2)c(=O)c1C#N [Compound 271]
- (B) moisture resistance [1]: ⊚
- (C) storage stability [2]: ◯
- (A)-1 light fastness-1 [3]: ⊚
- (A)-2 light fastness-2 [4]: ⊚

Structure (SMILES): CCc1c(N=Nc2cc(C(=O)O)ccc2C(=O)O)c(O)n(CCNc2nc(NCCn3c(O)c(N=Nc4cc(C(=O)O)ccc4C(=O)O)c(CC)c(C#N)c3=O)nc(NCCn3c(O)c(N=Nc4cc(C(=O)O)ccc4C(=O)O)c(CC)c(C#N)c3=O)n2)c(=O)c1C#N [Compound 273]
- (B) moisture resistance [1]: ⊚
- (C) storage stability [2]: ◯
- (A)-1 light fastness-1 [3]: ⊚
- (A)-2 light fastness-2 [4]: ⊚

Structure (SMILES): Cc1c(N=Nc2cc(C(=O)O)ccc2C(=O)O)c(O)n(CCCNc2nc(NCCn3c(O)c(N=Nc4cc(C(=O)O)ccc4C(=O)O)c(C)c(C#N)c3=O)nc(NCCn3c(O)c(N=Nc4c(C(=O)O)cccc4C(=O)O)c(C)c(C#N)c3=O)n2)c(=O)c1C#N [Compound 274]
- (B) moisture resistance [1]: ⊚
- (C) storage stability [2]: Δ
- (A)-1 light fastness-1 [3]: ⊚
- (A)-2 light fastness-2 [4]: ◯

From patent publication US20040231558A1, “Water-color ink” (priority 2001, published 2004)
